Values quoted from earlier work as cited in patent US6338859B1, “Polymeric micelle compositions” (Labopharm Inc., priority 2000, dated 2002).
Where “and” joins values, the source holds several entries; their conditions need not be identical. Identical values can stand only once. Like-named read-outs stand apart in the source and are kept apart here. Marks after values point to notes of the source that are not given here.

Experiments:
[1] = not given; remark: listed apart in the source
[2] = polymer PEO-PBLA, physical entrapment
[3] = polymer PEO-P(Asp), chemical bonding
[4] = polymer PEO-PE, physical entrapment

## C[C@@H]1[C@H](O)[C@@H](C)/C=C/C=C/C=C/C=C/C=C/C=C/C=C/[C@H](O[C@@H]2O[C@H](C)[C@@H](O)[C@H](N)[C@@H]2O)C[C@@H]2O[C@](O)(C[C@@H](O)C[C@@H](O)[C@H](O)CC[C@@H](O)C[C@@H](O)CC(=O)O[C@H]1C)C[C@H](O)[C@H]2C(=O)O [Amphotericin B]
[2]
  Micelle size with drug: 26 nm
[1]; after incorporation into PEO-PBLA micelles
  hemolytic activity: decrease

## N.N.[Cl][Pt][Cl] [Cisplatin]
[3]
  Micelle size with drug: 16 nm

## COc1cccc2c1C(=O)c1c(O)c3c(c(O)c1C2=O)C[C@@](O)(C(=O)CO)C[C@@H]3O[C@H]1C[C@H](N)[C@H](O)[C@H](C)O1 [DOX, doxorubicin]
[3]
  Micelle size with drug: 14-131 nm and 17-42 nm
Polymer PEO-P(Asp), chemical bonding, listed as Doxirubicin (DOX)
  Micelle size with drug: 50 nm
[2]
  Micelle size with drug: 30 nm and 37 nm
[1]; in PEO-PBLA after freeze drying and reconstitution in water, iodide quenching
  retention of drug in micelles: retained

## Cc1cc(N)c2ccccc2[n+]1CCCCCCCCCC[n+]1c(C)cc(N)c2ccccc21 [Dequalinium]
[4]
  Micelle size with drug: 15 nm

## O=C(CCCN1CCC(O)(c2ccc(Cl)cc2)CC1)c1ccc(F)cc1 [Haloperidol]
Polymer PEO-PPO-PEO, physical entrapment
  Micelle size with drug: 15 nm

## COc1ccc2c(c1)c(CC(=O)O)c(C)n2C(=O)c1ccc(Cl)cc1 [Indomethacin]
[2]
  Micelle size with drug: 25-29 nm
Polymer PEO-PCL, physical entrapment
  Micelle size with drug: 145-165 nm and 114-156 nm

## Gd-DTPA-PE
[4]
  Micelle size with drug: 20 nm

## KRN-5500
Polymer PEO-(C16, BLA), physical entrapment, after the sonication of PEO(C16, BLA) aggregates
  Micelle size with drug: 71* nm

## ^111In-DTPA-SA
[4]
  Micelle size with drug: 20 nm

B1: Soybean trypsin inhibitor: Soybean trypsin inhibitor physically entrapped in PEO-PE micelles (protein, UniProt P01070 25-205, looked up)
Trypsin inhibitor A: DFVLDNEGNPLENGGTYYILSDITAFGGIRAAPTGNERCPLTVVQSRNELDKGIGTIISSPYRIRFIAEGHPLSLKFDSFAVIMLCVGIPTEWSVVEDLPEGPAVKIGENKDAMDGWFRLERVSDDEFNNYKLVFCPQQAEDDKCGDIGISIDHDDGTRRLVVSKNKPLVVQFQKLDKESL
modifications: entrapped in PEO-PE micelles
[4]
  Micelle size with drug: 15 nm
